Results published in patent publication US20250345275A1, “Micromolar Halogenated Fluorescein Assists in Full Skin-Thickness Wound Healing” (priority 2024, published 2025).
Where “and” joins values, the source holds several entries; their conditions need not be identical. Equal values may be shown once. Entries after “also recorded” stand apart in the source; their conditions may differ.

How the values were obtained:
[1] = Complete blood count and blood chemistry panel; format: in vivo, BALB/c mice
From the text: (§1) Primary outcomes assessed safety through analysis of full complete blood count (CBC), comprehensive blood chemistry, body and organ weight. Secondary outcomes analyzed wound closure, epidermal water loss, erythema, and comprehensive wound histology.
(§2) In the primary outcome and measures and observations, the treated animals and a control group received a full CBC and comprehensive blood chemistry panel, as well as observations of body weight food consumption, and organ appearance. Secondarily, wound closure, epidermal water loss erythema and wound histology were examined.
(§3) to determine the effects of rose bengal on blood parameters, blood samples were collected at euthanasia through cardiac puncture and were analyzed for complete blood count using an Abaxis VETSCAN® HM5 Hematology Analyzer Allied Analytic, LLC., Tampa, FL. The blood components analyzed included: white blood cells [WBC], lymphocytes [LYMPH], monocytes [MONO], neutrophils [NEUT], red blood cells [RBC], hemoglobin [HGB], hematocrit [HCT], mean corpuscle volume [MCV], mean corpuscle hemoglobin [MCH], mean corpuscle hemoglobin concentration [MCHC], platelets [PLT], and mean platelet volume [MPV]. Blood chemistry was also analyzed using an Abaxis VETSCAN® VS2 Chemistry Analyzer—Diagnostics to determine liver and Pancreas function through Albumin [ALB], Alkaline phosphatase [ALP], Alanine aminotransferase [ALT], Total bilirubin [tBIL], Total protein [TPRT], Globulin [GLOB], and Amylase [AMY]. Glucose & electrolyte levels were determined by measuring Glucose [GLU], Calcium [CA], Phosphorus [PHOS], Sodium [NA], and Potassium [K]. Kidney Function was assessed through Creatinine [CRE] and Blood urea nitrogen [BUN] levels.

[2] = Body weight, survival, adverse events and organ examination in mice with full-thickness wounds; format: in vivo, BALB/c mice; details: for loss of body weight: 3 and 7 days post-injury (FIG. 1A)
Procedure: Animals: The Institutional Animal Care and Use Committee of the University of Texas Medical Branch in Galveston (UTMB) approved all protocols and studies were conducted in accordance with animal welfare regulations. Healthy 7-week-old male BALB/c mice (N=58) (strain 028, Charles River Laboratories, Houston, Texas, USA) 18-22 g were socially housed in temperature-and light-controlled facilities at UTMB with free access to food and water. Animals were acclimatized for one week before surgical procedures.
(§4) A Balb/C mice excision model was used with a cutaneous full-thickness injury made by a 6-mm diameter punch biopsy. The mice were 7-weeks old and 52 animals were used in the studies discussed herein.
(§5) Animals were administered the RB-containing PF-127-containing hydrogel every other day. A total of three animal treatment groups were studied along with two control groups. one group received vehicle plus light treatment, whereas the other group received vehicle without light. One treatment group of mice received 0.1% RB-containing hydrogel with irradiation for 30 minutes using monochromatic green light (MGL), λ=532 nm at a distance of 2.5 cm that provided […] and a dose of 35J/cm^2. A second treatment group also received 0.1% RB-containing hydrogel, but without MGL irradiation. The third treatment group received 0.01% RB-containing hydrogel without MGL irradiation.
as §1, §2, §3

[3] = PV-10 as RB source, delivered intratumorally; cited from earlier work
[4] = Tolerated bolus dose on intravasation after intratumoral PV-10; format: in vivo; details: equivalent of the 1500 mg bolus
Procedure: The wounds were treated with an aqueous pharmaceutical composition prepared using a PV-10®-based rose bengal formulation. PV-10® is a sterile, non-pyrogenic 10% solution of disodium RB in 0.9% saline for injection. Using PV-10®, as its RB source, RB has been tolerated at a bolus dose of 1500 mg upon intravasation when delivered intratumorally; this equates to an exposure of approximately 300 mg/L in the bloodstream (300 μM RB).

[5] = non-medical grade rose bengal, photoactivation with 550 nm MGL; cited from earlier work
[6] = system: full-thickness cutaneous wounds; assay: Transepidermal water loss (TEWL) over the wound, DermaLab Combo; format: in vivo, BALB/c mice; details: 0.01% RBS, no irradiation; for TEWL relative to usual (pre-injury) range: day 14 post-injury (FIG. 2B); for TEWL compared with vehicle alone: day 14 post-injury, p<0.0001 (FIG. 2B)
Procedure: (§6) Animals were placed under general anesthesia and a 10-mm diameter TEWL probe was placed directly over each wound ensuring uniform coverage and forming a seal immediately around the wound. Following environmental normalization to ambient temperature and relative humidity, TWEL was calculated at […]. A minimum of three TWEL measurements were obtained for each full-thickness wound and uninjured skin area. A color sensitive 7-mm diameter probe, insensitive to ambient light, was then placed over each wound to measure erythema; four measures were obtained for each wound. All wound erythema calculations were normalized to uninjured skin and reported as an index value over time.
as §6, with “At each time point prior to euthanasia, transepidermal water loss (TEWL) and wound erythema indices were measured using the validated DermaLab combo system (CortexTechnologies, Hadsund, Denmark). Animals” for “Animals”, “TEWL” for “TWEL”

[7] = system: full-thickness cutaneous wounds; assay: Tissue ROS generation in full-thickness injury; format: in vivo, Balb/c mice; details: RB phototherapy
From the text: Following functional and planimetric measurements, animals were euthanized and the dorsal skin, inclusive down to underlying facia and dorsal musculature, was excised; care was employed to not disrupt any open wound post-mortem and maintain tissue integrity. The left-side wound and surrounding uninjured skin was directly transferred into a flat position histology cassette and the right-side wound was immediately snap-frozen in liquid nitrogen for reactive oxygen species and molecular analyses. Histology cassettes were then immersed in 10% neutral buffer formalin for 72 hours and subsequently placed in 70% ethanol thereafter. Uninjured skin tissue for each animal was also collected and preserved for future analyses.
Data are presented as mean±SD with n=3-6 animals per group

[8] = system: full-thickness cutaneous wounds; assay: Wound closure by planimetry of digital images; format: in vivo, BALB/c mice; details: for wound closure compared with vehicle alone: 0.01% RB, no irradiation, day 3 post-injury (FIG. 4)
Procedure: as §4, §5
Before surgery, animals received buprenorphine (0.1 mg kg^−1) for pre-procedural analgesia, and inhaled isoflurane (0.2-1.0%) was continuously administered throughout the procedure. The dorsum of the animal was shaved, a depilatory cream was applied to completely remove all dorsal hair, and the area was scrubbed with betadine antiseptic. The animal was laid in the right lateral decubitus position and using forceps, the dorsal skin was stretched, and a 6-mm punch biopsy was used to create bilateral full-thickness cutaneous wounds. Next, a 0.5 mm-thick silicone ring was sutured in place through the panniculus carnosus around each wound to ensure wounds healed primarily through re-epithelialization.
Animals were then randomized into treatment groups as follows: (1) Saline control in the dark, (2) Saline control with MGL irradiation, (3) Hydrogel vehicle in the dark, (4) Hydrogel vehicle with MGL irradiation, (5) RB in the dark, and (6) RB with MGL irradiation. Treatment was applied directly to the wound bed (800 uL per wound) and spread using a sterile surgical spatula to ensure even and uniform thickness over the wound.
Animals were then placed in a separate light-sealed and heated enclosure in a sternal position to expose dorsal wounds and remained under general isoflurane anesthesia. All other exposed portions of the body were then covered with sterile wrap to expose only the wounds. […] Animals were euthanized at 3-, 7-, and 14-days post-injury when wound healing parameters were assessed.
After initial surgery and at each study time point post-injury, color digital images were obtained for each wound. […] Wound planimetry was calculated using ImageJ software (ver. 1.53) by tracing wound edges yielding a surface area in […]. Wound closure was calculated as follows: […]

[9] = system: full-thickness cutaneous wounds; assay: Wound erythema index, DermaLab Combo; format: in vivo, BALB/c mice
Procedure: as §6
as §6, with “At each time point prior to euthanasia, transepidermal water loss (TEWL) and wound erythema indices were measured using the validated DermaLab combo system (CortexTechnologies, Hadsund, Denmark). Animals” for “Animals”, “TEWL” for “TWEL”

[10] = system: full-thickness cutaneous wounds; assay: Number of blood vessels in the wound area (smooth muscle actin staining); format: in vivo, BALB/c mice; details: 0.01% RBS in vehicle, p<0.05 (FIG. 6); group not clearly stated
[11] = 0.01% RB every other day without photoactivation
[12] = 0.1% RB every other day with or without photoactivation
[13] = 0.1% RB every other day with or without photoactivation, out to 7 days
[14] = 0.01% RBS, no irradiation, day 7 post-injury, p<0.0001 (FIG. 3B)
[15] = 0.01% RBS, no irradiation, day 14 post-injury

O=C1OC2(c3cc(I)c(O)c(I)c3Oc3c2cc(I)c(O)c3I)c2c(Cl)c(Cl)c(Cl)c(Cl)c21 [RB, 4,5,6,7-tetrachloro-2′, 4′, 5′, 7′-tetraiodo-fluorescein]
other chemistries [1, 11]: within normal ranges | Erythrocytes and platelets size, morphology, count ([1]; 0.01% RB every other day without photoactivation, out to 14 days): normal | Leukocyte count ([1]; 0.01% RB every other day without photoactivation, out to 14 days post-injury/treatment): normal | mean amylase ([1]; 0.01% RB every other day without photoactivation, all groups): Elevated | other chemistries [1, 12]: within normal ranges | Erythrocytes and platelets size, morphology, count [1, 13]: normal | Leukocyte count ([1]; 0.1% RB every other day with or without photoactivation, out to 7 days post-injury): normal | mean amylase ([1]; 0.1% RB every other day with or without photoactivation, all treated groups): Elevated | adverse events [2, 11]: no adverse events noted | survival through time course ([2]; 0.01% RB every other day without photoactivation, n=33): All animals survived | Mean body mass ([2]; 0.01% RB every other day without photoactivation, throughout treatment): maintained | body weight ([2]; 0.01% RB, no irradiation, day 14 post-injury (between day 7 and 14)): slight weight gains; also recorded: gained weight; also recorded: slight increase | adverse events [2, 12]: no adverse events noted | survival through time course ([2]; 0.1% RB every other day with or without photoactivation, n=19): All animals survived | mean body mass loss [2, 13]: ~5% | body weight ([2]; 0.1% RB with and without irradiation, first seven days post-injury): lost weight | Body weight and gross examination of internal organs ([2]; at euthanasia): did not show any signs of toxicity | loss in body or organ weight ([2]; either treatment regimen (single or multidose)): No loss | toxicity / safety for wound healing applications ([2]; single (photoactivated) and multidose (ambient light, covered) topical application to full-thickness wounds): did not illicit toxicity | body weight ([2]; vehicle containing 0.01% RB, no irradiation, days 3 and 7 post-injury (FIG. 1B)): constant weights; also recorded: maintained their weights | tolerated bolus dose upon intravasation [3]: 1500 mg | exposure in the bloodstream [4]: approximately 300 mg/L and 300 μM | wound closure [5]: accelerates wound closure | wound healing [5]: improves wound healing | TEWL relative to usual (pre-injury) range [6]: about at the normal level | TEWL compared with vehicle alone [6]: significantly reduced | tissue ROS ([7]; 3 days post-injury, versus all other treatments): significantly increased tissue ROS | tissue ROS ([7]; day 14): abates to nominal levels | tissue ROS ([7]; throughout 7 days, versus all other treatments): sustained | wound closure compared with vehicle alone [8]: accelerates wound closure | wound closure compared with saline- or vehicle-treated wounds ([8]; RB with or without MGL irradiation, 3 and 7 days after injury): significantly closes full-thickness wounds faster | wound closure compared with every other treatment group ([8]; photoactivated RB, 14 days post-injury, p<0.05): significantly increased wound closure | erythema index compared with vehicle alone [9, 14]: significantly increased | erythema, day 3 versus day 7 ([9]; 0.1% RB, days 3 and 7 post injury (FIG. 3A)): about the same

O=C([O-])c1c(Cl)c(Cl)c(Cl)c(Cl)c1-c1c2cc(I)c(=O)c(I)c-2oc2c(I)c([O-])c(I)cc12.[Na+].[Na+] [RBS, rose bengal disodium]
loss of body weight ([2]; 0.1% RBS with irradiation (MGL)): approximately 5% | loss of body weight ([2]; 0.1% RBS without irradiation): approximately 5% | TEWL relative to usual (pre-injury) range [6]: back at their usual range | TEWL compared with vehicle alone [6]: statistically significant difference | wound closure compared with vehicle alone [8]: statistically significantly less | number of blood vessels, day 7 versus day 3 post-injury [10]: statistically greater | erythema index compared with vehicle alone [9, 14]: statistically significant difference | erythema index compared with vehicle alone [9, 15]: not statistically different | erythema index relative to usual values [9, 15]: very similar to the usual erythema index values
